11 molecules from ChEMBL document CHEMBL1201862, “PubChem BioAssay data set” (2004) can be followed below.

Among the test systems are RPMI-8226; OVCAR-3; NCI-H522; A549; UACC-62; DU-145; HCT-15; LOX IMVI; 786-0; IGROV-1; SK-MEL-2; SK-MEL-28; UACC-257; MDA-MB-231; SF-268; M14; SW-620; SNB-75; NCI-H23; RXF 393.
What all share (experiment): growth of human tumour cells (NCI), 48 h

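Following 48 hours of exposure in 96-well plates, responses at five concentrations were used to interpolate endpoints linearly. The concentration for 50% growth inhibition is given as GI50.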 Active and inactive are the calls of the source. Cut-off read from the data, not from the text of the source: active = GI50 up to about 1.1 µM and inactive = higher.

As to `Nc1nc(O)c2c(n1)NCN(c1ccc(S(N)(=O)=O)cc1)C2`, the GI50 in the test with RPMI-8226, in the test with OVCAR-3, in the test on NCI-H522, in the test with A549, with UACC-62 and in the test with DU-145 was > 100 µM (inactive) in each case. Moreover, the GI50 with HCT-15 is greater than 100 µM; in the test on LOX IMVI it was > 100 µM (inactive); with 786-0, > 100 µM (inactive); in the test on IGROV-1, > 100 µM (inactive); in the test with SK-MEL-2, > 100 µM (inactive); with SK-MEL-28, > 100 µM (inactive). The GI50 in the test on UACC-257, in the test with MDA-MB-231, in the test with SF-268, in the test on M14 and in the test with SW-620 was > 100 µM (inactive) throughout.
On to `Cc1nc(N)c(N2CCNCC2)c(O)n1`, for which the GI50 in the test with SNB-75 was > 100 µM (inactive); with RPMI-8226 it was > 100 µM (inactive); in the test with OVCAR-3 it was 76.7 µM (inactive); with NCI-H522, > 100 µM (inactive); with A549, > 100 µM (inactive); with DU-145 it was > 100 µM (inactive). In addition, the GI50 is greater than 100 µM in the test on HCT-15; > 100 µM (inactive) with LOX IMVI; > 100 µM (inactive) with NCI-H23; > 100 µM (inactive) in the test with 786-0; > 100 µM (inactive) in the test with SK-MEL-2; > 100 µM (inactive) in the test on SK-MEL-28. For the same molecule, the GI50 in the test with UACC-257, in the test on MDA-MB-231, in the test with SF-268, in the test on M14 and with SW-620 was > 100 µM (inactive) throughout.
As to `Cc1c(C)c(S(=O)(=O)N(CCCCN)OCCCN)c(C)c2c1OC(C)(C)CC2`, the GI50 with SNB-75 was 13.8 µM (inactive); in the test on RPMI-8226 it was 23.3 µM (inactive); in the test on OVCAR-3, 13.3 µM (inactive); in the test on NCI-H522 it was 13.1 µM (inactive); in the test with A549 it was 19.2 µM (inactive); with UACC-62, 20.7 µM (inactive). Moreover, the GI50 in the test on DU-145 was 23.7 µM (inactive); in the test with HCT-15, 21.5 µM; in the test on LOX IMVI, 6.22 µM (inactive); in the test on NCI-H23 it was 16.4 µM (inactive); in the test on 786-0 it was 13.7 µM (inactive); in the test with IGROV-1 it was 4.51 µM (inactive). The GI50 is 11.1 µM (inactive) in the test with SK-MEL-2; 19.6 µM (inactive) with SK-MEL-28; 22.2 µM (inactive) in the test on UACC-257; 21.7 µM (inactive) with MDA-MB-231; 15.4 µM (inactive) in the test with SF-268; 28.6 µM (inactive) in the test with M14. Moreover, the GI50 in the test with SW-620 was 31.8 µM (inactive).
On to `CC(C)(C)C1CCC(=O)/C(=C/CC2CC(=O)N(c3ccccc3)C(=O)C2)C1` (configuration not stated), for which the GI50 was 21.9 µM (inactive) in the test with SNB-75; 18.7 µM (inactive) with RPMI-8226; 23.1 µM (inactive) in the test with OVCAR-3; 18.9 µM (inactive) in the test with NCI-H522; 14.5 µM (inactive) in the test on UACC-62; 19.2 µM (inactive) with DU-145. For the same molecule, the GI50 was 15.5 µM in the test on HCT-15; 13.7 µM (inactive) in the test with LOX IMVI; 17.8 µM (inactive) in the test on NCI-H23; 19.8 µM (inactive) in the test with 786-0; 19.7 µM (inactive) in the test with IGROV-1; 19.4 µM (inactive) in the test with SK-MEL-2. The GI50 with SK-MEL-28 is 21.2 µM (inactive); in the test with UACC-257 it was 14.7 µM (inactive); in the test on MDA-MB-231, 44 µM (inactive); with SF-268, 20.1 µM (inactive); with SW-620, 23.4 µM (inactive).
As for `O=C(CC(=O)Nc1cccc(C(=O)O)c1)Nc1cccc(C(=O)O)c1`, the GI50 in the test on RPMI-8226 is > 100 µM (inactive); in the test with OVCAR-3 it was > 100 µM (inactive); with NCI-H522, > 100 µM (inactive); with A549 it was > 100 µM (inactive); in the test with UACC-62, 96.6 µM (inactive); in the test with DU-145, > 100 µM (inactive). In addition, the GI50 in the test on HCT-15 is greater than 100 µM; with LOX IMVI it was > 100 µM (inactive); with NCI-H23, > 100 µM (inactive); with 786-0, > 100 µM (inactive); in the test on IGROV-1, > 100 µM (inactive); in the test on SK-MEL-2, > 100 µM (inactive). Further, the GI50 with SK-MEL-28, with UACC-257, in the test on MDA-MB-231, in the test on SF-268, in the test with M14 and in the test with SW-620 was > 100 µM (inactive) in each case.
Take `CC(C)=C1C(=O)c2c(Cl)sc(Cl)c2C1=O`: the GI50 with SNB-75 was 18.4 µM (inactive); in the test with OVCAR-3, 29.3 µM (inactive); in the test on NCI-H522, 16.4 µM (inactive); in the test on A549 it was 26.1 µM (inactive); in the test on UACC-62, 19.9 µM (inactive); in the test on DU-145, 22.4 µM (inactive). Moreover, the GI50 was 20.7 µM with HCT-15; 18.2 µM (inactive) with LOX IMVI; 17.8 µM (inactive) with NCI-H23; 22.9 µM (inactive) in the test on 786-0; 21.9 µM (inactive) with IGROV-1; 20 µM (inactive) in the test on SK-MEL-2. In addition, the GI50 with SK-MEL-28 is 21.7 µM (inactive); with UACC-257, 21.3 µM (inactive); in the test on MDA-MB-231, 27.6 µM (inactive); with SF-268, 30.2 µM (inactive); with M14 it was 19 µM (inactive); in the test with SW-620, 28.7 µM (inactive).
In the case of `Cn1c(=O)c2c(nc3n2CCCC(=O)N3CC(O)CCl)n(C)c1=O` (configuration not stated), the GI50 with SNB-75, in the test on RPMI-8226, in the test on OVCAR-3, in the test on NCI-H522, in the test with A549 and with UACC-62 was > 100 µM (inactive) throughout. The GI50 in the test on DU-145 was > 100 µM (inactive); in the test on HCT-15, greater than 100 µM; in the test on LOX IMVI, > 100 µM (inactive); in the test on NCI-H23, > 100 µM (inactive); in the test on 786-0, > 100 µM (inactive); with IGROV-1, > 100 µM (inactive). Also, the GI50 in the test on SK-MEL-2, with SK-MEL-28, in the test on UACC-257, in the test with SF-268, with M14 and with SW-620 was > 100 µM (inactive) each time. In the test on RXF 393, the GI50 was > 100 µM (inactive).
Consider `CN(C)CCCNC(=O)c1cc(NC(=O)c2cc(NC(=O)CCCn3c4ccccc4c4ccccc43)cn2C)cn1C`, for which the GI50 in the test on SNB-75 was 14.4 µM (inactive); in the test with RPMI-8226, 3.08 µM (inactive); with OVCAR-3, 13.4 µM (inactive); in the test with NCI-H522, 14.2 µM (inactive); in the test with A549, 17.5 µM (inactive); in the test on DU-145, 17.9 µM (inactive). Besides, the GI50 in the test with HCT-15 was 28.1 µM; with LOX IMVI, 6.59 µM (inactive); in the test on NCI-H23 it was 14.8 µM (inactive); with 786-0, 13.5 µM (inactive); in the test on IGROV-1, 26.5 µM (inactive); in the test on SK-MEL-2, 24.8 µM (inactive). In addition, the GI50 in the test on SK-MEL-28 is 21.6 µM (inactive); with UACC-257 it was 15.9 µM (inactive); in the test with SF-268, 13.5 µM (inactive); with M14, 4.41 µM (inactive); in the test on SW-620, 7.94 µM (inactive); in the test on RXF 393 it was 12.6 µM (inactive).
`O=C1CC2C(=O)c3ccccc3CC2c2ccccc21` (configuration not stated): the GI50 was 6.49 µM (inactive) in the test with SNB-75; 15.2 µM (inactive) with RPMI-8226; 26.7 µM (inactive) with OVCAR-3; 57.4 µM (inactive) with NCI-H522; 36.3 µM (inactive) in the test with A549; 35.7 µM (inactive) in the test on UACC-62. The GI50 in the test with DU-145 was 50.5 µM (inactive); with HCT-15, 24.3 µM; in the test on LOX IMVI it was 38.5 µM (inactive); in the test on 786-0 it was 92.3 µM (inactive); in the test on IGROV-1 it was 27 µM (inactive); with SK-MEL-2, 87.1 µM (inactive). In addition, the GI50 with SK-MEL-28 was 70.6 µM (inactive); in the test with UACC-257, 24.8 µM (inactive); with MDA-MB-231, > 100 µM (inactive); with SF-268 it was 56.8 µM (inactive); in the test with M14, 69.5 µM (inactive); with SW-620, 49 µM (inactive).
Regarding `O=C(CN1CCN(Cc2ccccc2)CC1)N1CCCn2c1nc1ccccc1c2=O`, the GI50 with SNB-75, in the test with RPMI-8226, with OVCAR-3, in the test with NCI-H522, in the test with A549 and in the test on UACC-62 was > 100 µM (inactive) each time. The GI50 in the test with DU-145 is > 100 µM (inactive); with HCT-15 it was greater than 100 µM; in the test with LOX IMVI, > 100 µM (inactive); in the test on NCI-H23 it was > 100 µM (inactive); with 786-0, > 100 µM (inactive); in the test with IGROV-1 it was > 100 µM (inactive). The GI50 in the test with SK-MEL-2, in the test on UACC-257, with MDA-MB-231, in the test on SF-268, in the test on M14 and with SW-620 was > 100 µM (inactive) throughout.
Take `CC(=O)C(=NNc1ccc(-n2c(C)nc3ccccc3c2=O)cc1)C(C)=O`: the GI50 was > 100 µM (inactive) in the test on SNB-75; 30 µM (inactive) in the test on RPMI-8226; > 100 µM (inactive) with OVCAR-3; > 100 µM (inactive) in the test on A549; > 100 µM (inactive) with UACC-62; > 100 µM (inactive) in the test with DU-145. For the same molecule, the GI50 in the test with HCT-15 was greater than 100 µM; in the test with LOX IMVI it was > 100 µM (inactive); in the test with NCI-H23, > 100 µM (inactive); in the test on 786-0 it was > 100 µM (inactive); in the test with IGROV-1, > 100 µM (inactive); with SK-MEL-2, > 100 µM (inactive). Besides, the GI50 in the test on SK-MEL-28, in the test on UACC-257, in the test on MDA-MB-231, in the test with SF-268, in the test with M14 and in the test with SW-620 was > 100 µM (inactive) throughout.
